Results reported in patent publication US20190192458A1, “THERAPEUTIC/PROPHYLACTIC AGENT FOR GRAFT-VERSUS-HOST DISEASE, FIBROCYTE INVASION INHIBITOR, AND INHIBITOR AGAINST TEAR REDUCTION AND REDUCTION IN GOBLET CELLS” (KEIO UNIVERSITY, priority 2016, published 2019).

How the values were obtained:
[1] = system: MCP-1, TNF-α, and IFN-γ in blood sera; assay: ELISA of inflammation markers in blood sera; type: in vivo, mouse; settings: ELISA 28 days after bone marrow transplantation; PBA-treated vs vehicle-treated mice, n=4, P<0.05
Procedure: (§1) Bone marrow transplantation was performed as described in the above section “Bone marrow transplantation,” and the resulting allogeneic bone marrow transplantation recipient mice were divided into two groups. One group was treated with intraperitoneal injection of PBA (10 mg/kg) (Aldrich) while the other was treated with intraperitoneal injection of a solvent vehicle⋅phosphate buffered saline (PBS) (pH 7.4). The allogeneic bone marrow transplantation recipients received once-daily administration of PBA or the solvent vehicle from Day 10 to Day 27 after bone marrow transplantation. They were sacrificed on Day 28 after bone marrow transplantation.
Blood samples were withdrawn from PBA-treated mice and vehicle-treated mice, and centrifuged at 4000 rpm for 10 minutes. The levels of MCP-1, tumor necrosis factor-α (TNF-α), and interferon-γ (IFN-γ) in the resulting blood sera were measured using ELISA kits (Becton Dickinson). These assays were performed according to the protocol recommended by manufacturer Becton Dickinson.

[2] = system: mouse splenic macrophages; assay: Cultured splenic macrophages from PBA-treated and vehicle-treated mice (immunofluorescence, immunoblot, qPCR); type: cell-based
Procedure: as §1
Mouse splenic macrophages were cultured according to the Alatery and Besta method (Alatery A, Basta S, An efficient culture method for generating large quantities of mature mouse splenic macrophages. J Immunol Methods, 2008; 338: 47-57). Splenic cells suspended in RPMI containing 5% FBS were plated on a culture dish, and allowed to stand at 37° C. overnight. Subsequently, floating cells were removed. The desired cells adhering on the dish were cultured for 7 days in RPMI containing recombinant mouse M-CSF (5 ng/mL) (Peprotech Inc.), 5% of FBS, and 5% of the antibiotic. Induced macrophages were then detached from the culture dish by using accutase (Thermo Fisher Scientific), and used for experiments.
The induced macrophages were then transferred to an 8-well chamber slide (Fibronectin Culture Slide; Corning), and fixed with 10% neutral buffered formalin. Subsequently, they were blocked with methanol containing 0.3% hydrogen peroxide for 30 minutes at room temperature, and incubated with primary antibodies CD68 (AbD Serotec) and CHOP (Santa Cruz) overnight at 4° C. Then, the sections were treated with goat anti-mouse IgG (H+L) secondary antibody conjugated with Alexa Fluor 568 (Molecular Probes) and 4′,6-diamidino-2-phenylindole (DAPI) (Life Technologies) at room temperature for 45 minutes, and then mounted with an anti-fading mounting medium (Dako). Fluorescence images were captured under an LSM confocal microscope (Carl Zeiss).
The total RNA was extracted from the exorbital lacrimal gland, the proximal portion of the small intestine, the dorsal skin, the liver, the cultured fibroblasts, and the cultured macrophages using a miRNeasy mini kit (Qiagen), and the corresponding complementary DNAs were synthesized using a Rever Tra Ace qPCR RT kit (Toyobo Co., Ltd.). Primers used for analyzing the mRNA expression of the following genes with the TaqMan real-time polymerase chain reaction (PCR) were purchased from Applied Biosystems: housekeeping gene […] (GAPDH), glucose-regulated protein 78 (GRP78), Interleukin-1β (IL-1β), IL-6, IL-10, macrophage chemoattractant protein-1 (MCP-1), and transcription growth factor-β (TGF). A Step One Plus system (Applied Biosystems) was used to perform quantitative real time PCR, and the resulting data was analyzed by the 2^−ΔΔCT method. GAPDH was used as an internal standard for measuring the expression of mRNA.
Tissues of interest were each placed into an Eppendorf tube, and a pre-cooled RIPA buffer solution was then added to the tube. Subsequently, the tissues were each homogenized with an electric homogenizer. Samples were each allowed to stand on ice for 1 hour, and then centrifuged at 15000 rpm for 5 minutes at 4° C. Then, the supernatants were each collected in a fresh tube on ice, and used as a cell lysate. The cell lysates each received the same amount of a 5×Laemmli buffer solution, and each was heated at 100° C. for 5 minutes to denature proteins.
An aliquot of each sample having the same amount of proteins was loaded into a well of an SDS-PAGE gel, and then […]. Proteins were transferred from the gel to a membrane at 15 V for 20 minutes. The membrane was blocked at room temperature for 1 hour with 5% skim milk or 5% BSA (bovine serum albumin) in 1×TBST (a mixture of Tris-buffered saline and Tween 20). […]

[3] = splenic macrophages from PBA-treated vs vehicle-treated mouse, immunoblot, n=4
[4] = splenic macrophages, qPCR, n=4 to 5, PBA-treated vs vehicle-treated, FIG. 7E

## O=C(O)CCCc1ccccc1 [PBA, 4-phenyl-n-butyric acid]
[1]
  protein level of IFN-γ in blood sera: lower protein levels
  protein level of MCP-1 in blood sera: lower protein levels
  protein level of TNF-α in blood sera: lower protein levels
[2]; splenic macrophages from PBA-treated vs vehicle-treated mouse, FIG. 7B
  CHOP expression in cultured splenic macrophages (immunofluorescence): vehicle-treated splenic macrophages express CHOP in contrast with PBA-treated splenic macrophages
[2]; [3]
  CHOP in splenic macrophages (immunoblot): substantially inhibited
  GRP78 in splenic macrophages: substantially inhibited
  phosphorylated IRE1α in splenic macrophages: substantially inhibited
  phosphorylated PERK in splenic macrophages: substantially inhibited
  phosphorylated eIF2α in splenic macrophages: substantially inhibited
[2]; [4]
  gene expression of M1 macrophage marker IL-1β: higher gene expressions
  gene expression of M1 macrophage marker IL-6: higher gene expressions
  mRNA expression of M2 macrophage marker IL-10: increased in the vehicle-treated macrophages as compared with the PBA-treated macrophages
  mRNA expression of M2 macrophage marker TGF-β: increased in the vehicle-treated macrophages as compared with the PBA-treated macrophages
